# Test results as given in the RepoRT retention time repository (doi:10.1016/j.jchromb.2020.122105).
# Legend:
# Settings in all cases: stereoisomer not certain
# [1] = RP, Waters CORTECS T3, 100 × 2.1 mm, 2.7 µm, 0.3 mL/min, estimated dead time 0.73 min; A: water + 0.1% formic acid, pH 3; B: methanol + 0.1% formic acid, pH 3; gradient (min/%B) 0/5 5/5 25/100 30/100 30.1/5 35/5
# [2] = RP, Waters CORTECS T3, 100 × 2.1 mm, 2.7 µm, 0.3 mL/min, estimated dead time 0.73 min; A: water + 0.1% formic acid, pH 3; B: methanol + 0.1% formic acid, pH 3; gradient (min/%B) 0/0 5/0 25/100 30/100 30.1/0 35/0
# [3] = RP, Waters CORTECS T3, 100 × 2.1 mm, 2.7 µm, 0.2 mL/min, estimated dead time 1.1 min; A: water + 0.1% formic acid, pH 3; B: methanol + 0.1% formic acid, pH 3; gradient (min/%B) 0/0 1/0 6/5 30/100 35/100 35.1/0 40/0
# [4] = RP, Waters CORTECS T3, 100 × 2.1 mm, 2.7 µm, 0.1 mL/min, estimated dead time 2.2 min; A: water + 0.1% formic acid, pH 3; B: methanol + 0.1% formic acid, pH 3; gradient (min/%B) 0/0 1/0 6/5 30/100 35/100 35.1/0 40/0
# [5] = RP, Waters CORTECS T3, 100 × 2.1 mm, 2.7 µm, 0.15 mL/min, estimated dead time 1.5 min; A: water + 0.1% formic acid, pH 3; B: methanol + 0.1% formic acid, pH 3; gradient (min/%B) 0/0 1/0 6/5 30/100 35/100 35.1/0 40/0
# [6] = RP, Waters CORTECS T3, 100 × 2.1 mm, 2.7 µm, 0.3 mL/min, estimated dead time 0.73 min; A: water + 0.1% formic acid, pH 3; B: methanol + 0.1% formic acid, pH 3; gradient (min/%B) 0/0 1/0 6/5 30/100 35/100 35.1/0 40/0
# [7] = RP, Waters CORTECS T3, 100 × 2.1 mm, 2.7 µm, 0.25 mL/min, estimated dead time 0.88 min; A: water + 0.1% formic acid, pH 3; B: methanol + 0.1% formic acid, pH 3; gradient (min/%B) 0/0 1/0 6/5 30/100 35/100 35.1/0 40/0
# [8] = RP, Waters CORTECS T3, 100 × 2.1 mm, 2.7 µm, 0.1 mL/min, estimated dead time 2.2 min; A: water + 0.1% formic acid, pH 3; B: methanol + 0.1% formic acid, pH 3; gradient (min/%B) 0/5 5/5 25/95 25.1/100 35/100 35.1/5 45/5
# [9] = RP, Thermo Scientific Hypercarb, 150 × 2.1 mm, 5 µm, 0.1 mL/min, estimated dead time 3.3 min; A: water + 0.1% formic acid, pH 3; B: methanol + 0.1% formic acid, pH 3; gradient (min/%B) 0/5 5/5 20/100 35/100 35.1/5 45/5
# [10] = RP, Waters CORTECS T3, 100 × 2.1 mm, 2.7 µm, 0.3 mL/min, estimated dead time 0.73 min; A: water + 0.1% formic acid, pH 3; B: methanol + 0.1% formic acid, pH 3; gradient (min/%B) 0/5 5/5 25/95 25.1/100 35/100 35.1/5 45/5
# [11] = RP, Waters ACQUITY UPLC BEH C18, 100 × 2.1 mm, 1.7 µm, 0.1 mL/min, estimated dead time 2.2 min; A: water + 0.1% formic acid, pH 3; B: methanol + 0.1% formic acid, pH 3; gradient (min/%B) 0/5 5/5 25/100 30/100 30.1/5 35/5
# [12] = RP, Waters CORTECS T3, 100 × 2.1 mm, 2.7 µm, 0.2 mL/min, estimated dead time 1.1 min; A: water + 0.045% formic acid + 0.11% ammonium hydroxide, pH 7; B: methanol; gradient (min/%B) 0/5 5/5 25/95 25.1/100 35/100 35.1/5 45/5
# [13] = RP, Waters ACQUITY UPLC BEH C18, 100 × 2.1 mm, 1.7 µm, 0.1 mL/min, estimated dead time 2.2 min; A: water + 0.1% formic acid, pH 3; B: methanol + 0.1% formic acid, pH 3; gradient (min/%B) 0/5 5/5 25/95 25.1/100 35/100 35.1/5 45/5
# [14] = as above; remark: listed apart in the source
# [15] = RP, Waters ACQUITY UPLC BEH C18, 100 × 2.1 mm, 1.7 µm, 0.1 mL/min, estimated dead time 2.2 min; A: water + 0.045% formic acid + 0.11% ammonium hydroxide, pH 7; B: methanol; gradient (min/%B) 0/5 5/5 25/95 25.1/100 35/100 35.1/5 45/5
# [16] = RP, Waters ACQUITY UPLC BEH C18, 100 × 2.1 mm, 1.7 µm, 0.2 mL/min, estimated dead time 1.1 min; A: water + 0.025% formic acid + 20 mM ammonium acetate + 0.055% ammonium hydroxide, pH 7; B: methanol; gradient (min/%B) 0/5 5/5 25/100 30/100 30.1/5 35/5
# [17] = HILIC, Merck SeQuant ZIC-HILIC, 150 × 2.1 mm, 5 µm, 0.75 mL/min, estimated dead time 0.44 min; A: water + 10 mM ammonium formate, pH 6; B: 5% water + 95% acetonitrile + 10 mM ammonium formate, pH 6; gradient (min/%B) 0/95 5/95 20/57 25/57 30/95 40/95
# [18] = HILIC, Merck SeQuant ZIC-HILIC, 150 × 2.1 mm, 5 µm, 0.75 mL/min, estimated dead time 0.44 min; A: water + 0.1% acetic acid + 10 mM ammonium acetate, pH 4; B: 5% water + 95% acetonitrile + 0.1% acetic acid + 10 mM ammonium acetate, pH 4; gradient (min/%B) 0/95 5/95 20/57 25/57 30/95 40/95
# [19] = HILIC, Waters XBridge BEH Amide, 100 × 2.1 mm, 2.5 µm, 0.5 mL/min, estimated dead time 0.44 min; A: water + 0.1% acetic acid + 10 mM ammonium acetate, pH 4; B: 5% water + 95% acetonitrile + 0.1% acetic acid + 10 mM ammonium acetate, pH 4; gradient (min/%B) 0/95 5/95 20/57 25/57 30/95 40/95
# [20] = RP, Waters CORTECS T3, 100 × 2.1 mm, 2.7 µm, 0.3 mL/min, estimated dead time 0.73 min; A: water + 0.1% formic acid, pH 3; B: methanol + 0.1% formic acid, pH 3; gradient (min/%B) 0/0 5/0 25/100 30/100 30.1/0 35/0; remark: listed apart in the source
# [21] = RP, Waters CORTECS T3, 100 × 2.1 mm, 2.7 µm, 0.2 mL/min, estimated dead time 1.1 min; A: water + 0.1% formic acid, pH 3; B: methanol + 0.1% formic acid, pH 3; gradient (min/%B) 0/0 1/0 6/5 30/100 35/100 35.1/0 40/0; remark: listed apart in the source
# [22] = RP, Waters ACQUITY UPLC BEH C18, 100 × 2.1 mm, 1.7 µm, 0.2 mL/min, estimated dead time 1.1 min; A: water + 0.1% formic acid, pH 3; B: methanol + 0.1% formic acid, pH 3; gradient (min/%B) 0/5 5/5 25/100 30/100 30.1/5 35/5
# [23] = RP, Waters ACQUITY UPLC BEH C18, 100 × 2.1 mm, 1.7 µm, 0.1 mL/min, estimated dead time 2.2 min; A: water + 0.1% formic acid, pH 3; B: methanol + 0.1% formic acid, pH 3; gradient (min/%B) 0/5 5/5 25/95 25.1/100 35/100 35.1/5 45/5; remark: listed apart in the source
# [24] = RP, Waters ACQUITY UPLC BEH C18, 100 × 2.1 mm, 1.7 µm, 0.2 mL/min, estimated dead time 1.1 min; A: water + 0.025% formic acid + 20 mM ammonium acetate + 0.055% ammonium hydroxide, pH 7; B: methanol; gradient (min/%B) 0/5 5/5 25/100 30/100 30.1/5 35/5; remark: listed apart in the source
# [25] = RP, Waters CORTECS T3, 100 × 2.1 mm, 2.7 µm, 0.3 mL/min, estimated dead time 0.73 min; A: water + 0.1% formic acid, pH 3; B: methanol + 0.1% formic acid, pH 3; gradient (min/%B) 0/0 1/0 6/5 30/100 35/100 35.1/0 40/0; remark: listed apart in the source
# [26] = RP, Waters CORTECS T3, 100 × 2.1 mm, 2.7 µm, 0.2 mL/min, estimated dead time 1.1 min; A: water + 0.1% formic acid, pH 3; B: methanol + 0.1% formic acid, pH 3; gradient (min/%B) 0/5 5/5 25/95 25.1/100 35/100 35.1/5 45/5
# [27] = RP, Waters CORTECS T3, 100 × 2.1 mm, 2.7 µm, 0.25 mL/min, estimated dead time 0.88 min; A: water + 0.1% formic acid, pH 3; B: methanol + 0.1% formic acid, pH 3; gradient (min/%B) 0/5 5/5 25/95 25.1/100 35/100 35.1/5 45/5
SMILES,LC retention time [1],LC retention time [2],LC retention time [3],LC retention time [4],LC retention time [5],LC retention time [6],LC retention time [7],LC retention time [8],LC retention time [10],LC retention time [11],LC retention time [12],LC retention time [13],LC retention time [14],LC retention time [15],LC retention time [16],LC retention time [18],LC retention time [19],LC retention time [21],LC retention time [22],LC retention time [23],other results
"Nc1ccn(C2OC(CO)C3OP(=O)([O-])OC32)c(=O)n1 (stereo not given) [CYTIDINE 2',3'-CYCLIC MONOPHOSPHATE]",,0.89 min,1.34 min,,1.78 min,,1.09 min,,,2.74 min,,2.66 min,2.72 min,,,12.1 min,,1.35 min,1.34 min,2.67 min,LC retention time [20]: 0.89 min; LC retention time [24]: 1.36 min
"Nc1nc2c(ncn2C2OC3COP(=O)(O)OC3C2O)c(=O)[nH]1 (stereo not given) [GUANOSINE 3',5'-CYCLIC MONOPHOSPHATE]",2.67 min,,7.21 min,3.77 min,9.04 min,5.42 min,6.2 min,7.41 min,2.59 min,7.01 min,,6.68 min,2.72 min,,,12.3 min,12.3 min,7.35 min,3.76 min,7.13 min,LC retention time [20]: 6.99 min; LC retention time [25]: 5.71 min; LC retention time [26]: 11.1 min; LC retention time [27]: 3.22 min; LC retention time [24]: 1.41 min
Cc1cc2nc3[nH]c(=O)[nH]c(=O)c3nc2cc1C [LUMICHROME],14.6 min,15.3 min,18.3 min,16.3 min,19.6 min,,17.5 min,19.6 min,15 min,19.1 min,16.4 min,19.6 min,19.6 min,19.5 min,16 min,,,18.3 min,16 min,19.6 min,LC retention time [27]: 15.5 min; LC retention time [24]: 13.1 min

# More lines, main results first:
LC retention time [1],LC retention time [2],LC retention time [3],LC retention time [4],LC retention time [5],LC retention time [6],LC retention time [7],LC retention time [8],LC retention time [10],LC retention time [11],LC retention time [12],LC retention time [13],LC retention time [14],LC retention time [15],LC retention time [16],LC retention time [18],LC retention time [19],LC retention time [21],LC retention time [22],LC retention time [23],SMILES,other results
5.02 min,8.57 min,9.42 min,7.08 min,10.7 min,8.04 min,8.69 min,10.9 min,4.96 min,10.5 min,10.7 min,10.6 min,2.66 min,13.5 min,10.5 min,1.51 min,2.22 min,,,,Cn1cnc2c(ncn2C2OC(CO)C(O)C2O)c1=N (stereo not given) [1-METHYLADENOSINE],LC retention time [9]: 21.8 min; LC retention time [17]: 1.56 min
8.5 min,9.9 min,11.3 min,9.84 min,12.6 min,10.1 min,10.7 min,13 min,8.59 min,12.9 min,12.3 min,13.1 min,13.1 min,15.4 min,12.1 min,1.23 min,1.61 min,,,,CSCC1OC(n2cnc3c(N)ncnc32)C(O)C1O (stereo not given) [5'-METHYLTHIOADENOSINE],LC retention time [17]: 1.29 min
